# Reference: ChEMBL document CHEMBL4806959, “Antagonistic peptides for frizzled-1 and frizzled-2” (2015)
# Active and inactive are the calls of the source. No cut-off for these calls is given here. Residues, ends and D or L forms follow the SMILES beside them.
# Columns and labels:
# [1] = molecular target: Frizzled-2 (Rattus norvegicus) (UniProt Q08464); assay: Agonist activity at rat frizzled-2 expressed in CHO cells by luciferase reporter gene assay; assay type: cell-based
# [2] = molecular target: Frizzled-1 (Mus musculus) (UniProt O70421); assay: Antagonist activity at Wnt3a-stimulaed mouse frizzled-1 expressed in human HEK293superTOP flash cells incubated for 24 hrs by luciferase reporter gene assay; assay type: cell-based; details: HEK293, filed as antagonist
# Sequence of Frizzled-1 (Mus musculus) (O70421 whole entry, looked up): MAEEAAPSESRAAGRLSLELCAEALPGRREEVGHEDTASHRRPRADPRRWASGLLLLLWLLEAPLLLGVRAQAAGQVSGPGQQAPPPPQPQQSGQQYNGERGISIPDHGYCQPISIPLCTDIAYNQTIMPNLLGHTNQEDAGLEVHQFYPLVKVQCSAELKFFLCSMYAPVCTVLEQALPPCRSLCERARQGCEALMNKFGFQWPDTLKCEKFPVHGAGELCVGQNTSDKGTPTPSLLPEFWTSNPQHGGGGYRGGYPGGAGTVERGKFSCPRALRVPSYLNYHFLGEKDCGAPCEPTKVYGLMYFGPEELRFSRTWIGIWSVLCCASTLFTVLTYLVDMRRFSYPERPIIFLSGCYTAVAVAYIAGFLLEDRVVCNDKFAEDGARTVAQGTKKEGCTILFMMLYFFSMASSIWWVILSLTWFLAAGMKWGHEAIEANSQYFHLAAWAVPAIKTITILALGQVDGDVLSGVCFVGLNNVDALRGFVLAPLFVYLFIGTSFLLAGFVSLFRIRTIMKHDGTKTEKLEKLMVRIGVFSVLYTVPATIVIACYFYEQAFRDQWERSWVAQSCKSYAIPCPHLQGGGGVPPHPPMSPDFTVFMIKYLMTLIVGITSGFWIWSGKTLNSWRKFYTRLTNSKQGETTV
# Mus musculus [3] = assay: Cardioprotective activity against myocardial infarction Swiss mouse model assessed as ventricular dilation at 6 ug/kg/day, sc via osmotic pumps for 5 weeks by macroscopic analysis; assay type: functional, organism-based; details: dose 6.0 µg/kg/day
# Mus musculus [4] = assay: Cardioprotective activity against myocardial infarction Swiss mouse model assessed as reduction in infarction expansion in heart at 6 ug/kg/day, sc via osmotic pumps for 5 weeks by macroscopic analysis; assay type: functional, organism-based; details: dose 6.0 µg/kg/day
# Mus musculus [5] = assay: Cardioprotective activity against myocardial infarction Swiss mouse model assessed as animal mortality at 6 ug/kg/day, sc via osmotic pumps for 5 weeks (reference value: 35%); assay type: functional; details: 840 h, at 6 µg/kg/day
# Mus musculus [6] = assay: Cardioprotective activity against myocardial infarction Swiss mouse model assessed as increase in myofibroblast number at 6 ug/kg/day, sc via osmotic pumps for 5 weeks by immunohistochemical staining analysis; assay type: functional, organism-based; details: dose 6.0 µg/kg/day
# [7] = molecular target: Frizzled-2 (Rattus norvegicus) (UniProt Q08464); assay: Agonist activity at rat frizzled-2 expressed in African green monkey COS7 cells by luciferase reporter gene assay; assay type: cell-based
# Mus musculus [8] = assay: Cardioprotective activity against myocardial infarction Swiss mouse model assessed as ratio of maximum positive slope to pressure of positive slope at 6 ug/kg/day, sc via osmotic pumps for 5 weeks by Millar pressure recording based analysis (reference value: 43.78 +/-1.93 1/sec); assay type: functional; details: dose 6 µg/kg/day
# [9] = molecular target: Frizzled-1 (Rattus norvegicus) (UniProt Q08463); assay: Agonist activity at rat frizzled-1 expressed in African green monkey COS7 cells by luciferase reporter gene assay; assay type: cell-based
# Sequence of Frizzled-1 (Rattus norvegicus) (Q08463 whole entry): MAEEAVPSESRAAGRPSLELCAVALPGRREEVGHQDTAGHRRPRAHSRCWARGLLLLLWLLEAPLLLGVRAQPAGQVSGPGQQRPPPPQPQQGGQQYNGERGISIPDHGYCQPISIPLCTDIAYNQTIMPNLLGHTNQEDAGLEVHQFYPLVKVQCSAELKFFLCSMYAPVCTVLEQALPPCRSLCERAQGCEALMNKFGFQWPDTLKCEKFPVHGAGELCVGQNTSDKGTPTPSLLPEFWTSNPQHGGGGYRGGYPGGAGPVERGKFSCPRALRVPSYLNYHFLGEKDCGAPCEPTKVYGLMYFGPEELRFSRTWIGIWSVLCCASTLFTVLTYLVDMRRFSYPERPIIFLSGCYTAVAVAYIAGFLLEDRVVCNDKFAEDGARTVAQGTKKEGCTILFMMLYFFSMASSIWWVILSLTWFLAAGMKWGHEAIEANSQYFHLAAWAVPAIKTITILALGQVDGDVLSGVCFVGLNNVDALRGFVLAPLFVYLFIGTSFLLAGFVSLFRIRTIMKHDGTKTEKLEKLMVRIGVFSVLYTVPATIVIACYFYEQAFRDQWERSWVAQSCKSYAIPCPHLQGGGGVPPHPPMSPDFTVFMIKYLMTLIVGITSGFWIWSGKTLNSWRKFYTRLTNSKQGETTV
# [10] = molecular target: Frizzled-1 (Homo sapiens) (UniProt Q9UP38); assay: Antagonist activity at Wnt3a-stimulaed human frizzled-1 expressed in human HEK293superTOP flash cells incubated for 24 hrs by luciferase reporter gene assay; assay type: functional, cell-based; details: HEK293, filed as antagonist
# Sequence of Frizzled-1 (Homo sapiens) (Q9UP38 70-647 limits assumed): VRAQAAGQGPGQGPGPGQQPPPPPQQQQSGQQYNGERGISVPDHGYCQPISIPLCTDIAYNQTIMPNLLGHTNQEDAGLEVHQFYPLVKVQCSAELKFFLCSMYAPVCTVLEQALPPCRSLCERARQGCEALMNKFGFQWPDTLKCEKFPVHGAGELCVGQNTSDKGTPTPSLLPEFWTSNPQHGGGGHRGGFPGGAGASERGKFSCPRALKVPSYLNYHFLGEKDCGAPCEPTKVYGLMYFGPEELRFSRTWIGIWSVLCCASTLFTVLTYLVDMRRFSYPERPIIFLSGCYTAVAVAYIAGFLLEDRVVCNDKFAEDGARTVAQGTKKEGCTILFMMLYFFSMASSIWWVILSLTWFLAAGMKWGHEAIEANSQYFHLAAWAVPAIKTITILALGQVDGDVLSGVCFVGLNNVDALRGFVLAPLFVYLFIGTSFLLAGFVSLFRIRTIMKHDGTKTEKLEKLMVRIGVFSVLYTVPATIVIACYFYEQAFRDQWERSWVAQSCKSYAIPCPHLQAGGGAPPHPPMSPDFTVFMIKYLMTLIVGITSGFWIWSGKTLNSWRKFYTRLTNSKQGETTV
# Mus musculus [11] = assay: Cardioprotective activity against myocardial infarction Swiss mouse model assessed as reduction in wet lung weight at 6 ug/kg/day, sc via osmotic pumps for 5 weeks; assay type: functional, organism-based; details: dose 6.0 µg/kg/day
# Mus musculus [12] = assay: Cardioprotective activity against myocardial infarction Swiss mouse model assessed as increase in alpha-SMA gene expression in heart at 6 ug/kg/day, sc via osmotic pumps for 5 weeks by qPCR analysis; assay type: functional, organism-based; details: dose 6.0 µg/kg/day
# Mus musculus [13] = assay: Cardioprotective activity against myocardial infarction Swiss mouse model assessed as ESV_L at 6 ug/kg/day, sc via osmotic pumps for 5 weeks by echocardiographic analysis (reference value: 0.179 +/-0.007 cm3); assay type: functional; details: dose 6 µg/kg/day
# Rattus norvegicus = organism: Rattus norvegicus; assay: Selectivity index, ratio of IC50 for Wnt3a-stimulated rat frizzled-1 expressed in human HEK293superTOPFlash cells to IC50 for Wnt3a-stimulated rat frizzled-2 expressed in human HEK293superTOPFlash cells; assay type: cell-based
# Mus musculus [14] = assay: Cardioprotective activity against myocardial infarction Swiss mouse model assessed as LVAs at 6 ug/kg/day, sc via osmotic pumps for 5 weeks by echocardiographic analysis (reference value: 0.44 +/-0.01 cm2); assay type: functional; details: dose 6 µg/kg/day
# Frizzled-2 [15] = molecular target: T1, Frizzled-2 (Homo sapiens, UniProt Q14332); assay: Antagonist activity at frizzled-2 (unknown origin) expressed in human HEK293superTOP flash cells incubated for 24 hrs by luciferase reporter gene assay; assay type: functional, cell-based; details: HEK293
# T1 sequence (Q14332 24-565 limits assumed): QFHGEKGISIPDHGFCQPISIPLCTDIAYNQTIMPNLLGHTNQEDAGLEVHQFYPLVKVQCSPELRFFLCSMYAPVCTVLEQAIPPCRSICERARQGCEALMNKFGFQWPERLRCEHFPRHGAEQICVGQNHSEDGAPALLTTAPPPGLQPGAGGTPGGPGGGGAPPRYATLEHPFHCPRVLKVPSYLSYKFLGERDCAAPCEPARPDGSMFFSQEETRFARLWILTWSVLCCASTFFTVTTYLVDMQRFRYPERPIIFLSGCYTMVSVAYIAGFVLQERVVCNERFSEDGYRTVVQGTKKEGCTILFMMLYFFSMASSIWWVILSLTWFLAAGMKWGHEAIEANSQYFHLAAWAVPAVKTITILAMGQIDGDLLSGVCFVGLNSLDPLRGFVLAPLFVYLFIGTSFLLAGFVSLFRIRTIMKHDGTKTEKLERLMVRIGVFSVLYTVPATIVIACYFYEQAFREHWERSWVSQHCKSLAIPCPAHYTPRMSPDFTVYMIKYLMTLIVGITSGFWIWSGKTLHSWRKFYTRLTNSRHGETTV
# Mus musculus [16] = assay: Cardioprotective activity against myocardial infarction Swiss mouse model assessed as increase in alpha-SMA protein expression in heart at 6 ug/kg/day, sc via osmotic pumps for 5 weeks by western blot analysis; assay type: functional, organism-based; details: dose 6.0 µg/kg/day
# Mus musculus [17] = assay: Cardioprotective activity against myocardial infarction Swiss mouse model assessed as reduction in infarct area in heart at 6 ug/kg/day, sc via osmotic pumps for 2 to 5 weeks by immunohistochemical staining analysis; assay type: functional, organism-based; details: dose 6.0 µg/kg/day, time 2-5 weeks
# [18] = molecular target: Frizzled-5 (Homo sapiens) (UniProt Q13467); assay: Antagonist activity at Wnt3a-stimulaed human frizzled-5 expressed in human HEK293superTOP flash cells at 10 nM incubated for 24 hrs by luciferase reporter gene assay; assay type: functional, cell-based; details: HEK293
# Sequence of Frizzled-5 (Homo sapiens) (Q13467 whole entry): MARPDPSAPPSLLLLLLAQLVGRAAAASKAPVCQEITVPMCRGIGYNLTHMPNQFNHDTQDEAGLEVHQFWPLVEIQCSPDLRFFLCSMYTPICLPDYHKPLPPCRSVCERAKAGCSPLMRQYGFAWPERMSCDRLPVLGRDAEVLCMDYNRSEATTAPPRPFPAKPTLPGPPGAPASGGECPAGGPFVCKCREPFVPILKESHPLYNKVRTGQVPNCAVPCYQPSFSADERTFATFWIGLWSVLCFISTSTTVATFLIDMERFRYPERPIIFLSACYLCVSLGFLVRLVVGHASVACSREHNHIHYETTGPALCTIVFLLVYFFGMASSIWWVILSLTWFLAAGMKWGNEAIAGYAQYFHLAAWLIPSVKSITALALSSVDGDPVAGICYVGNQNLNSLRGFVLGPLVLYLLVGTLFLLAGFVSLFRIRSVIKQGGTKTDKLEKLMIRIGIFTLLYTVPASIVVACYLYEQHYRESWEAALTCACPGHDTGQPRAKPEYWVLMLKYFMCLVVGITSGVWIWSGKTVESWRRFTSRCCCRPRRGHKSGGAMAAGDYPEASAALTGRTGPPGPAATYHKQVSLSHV
# Mus musculus [19] = assay: Cardioprotective activity against myocardial infarction Swiss mouse model assessed as LVAd at 6 ug/kg/day, sc via osmotic pumps for 5 weeks by echocardiographic analysis (reference value: 0.5 +/-0.01 cm2); assay type: functional; details: dose 6 µg/kg/day
# [20] = molecular target: Frizzled-5 (Homo sapiens) (UniProt Q13467); assay: Antagonist activity at Wnt3a-stimulaed frizzled-5 (unknown origin) expressed in human HEK293superTOP flash cells incubated for 24 hrs by luciferase reporter gene assay; assay type: functional, cell-based; details: HEK293
# [21] = molecular target: Frizzled-1 (Rattus norvegicus) (UniProt Q08463); assay: Agonist activity at rat frizzled-1 expressed in human HEK293superTOP flash cells by luciferase reporter gene assay; assay type: cell-based; details: HEK293
# Mus musculus [22] = assay: Cardioprotective activity against myocardial infarction Swiss mouse model assessed as SV_L at 6 ug/kg/day, sc via osmotic pumps for 5 weeks by echocardiographic analysis (reference value: 0.035 +/-0.005 cm3); assay type: functional; details: dose 6 µg/kg/day
# [23] = molecular target: Frizzled-2 (Rattus norvegicus) (UniProt Q08464); assay: Agonist activity at rat frizzled-2 expressed in human HEK293superTOP flash cells by luciferase reporter gene assay; assay type: cell-based; details: HEK293
# [24] = molecular target: T2, Frizzled-4 (Homo sapiens) (UniProt Q9ULV1); assay: Antagonist activity at Wnt3a-stimulaed human frizzled-4 expressed in human HEK293superTOP flash cells at 10 nM incubated for 24 hrs by luciferase reporter gene assay; assay type: functional, cell-based; details: HEK293
# T2 sequence (whole entry): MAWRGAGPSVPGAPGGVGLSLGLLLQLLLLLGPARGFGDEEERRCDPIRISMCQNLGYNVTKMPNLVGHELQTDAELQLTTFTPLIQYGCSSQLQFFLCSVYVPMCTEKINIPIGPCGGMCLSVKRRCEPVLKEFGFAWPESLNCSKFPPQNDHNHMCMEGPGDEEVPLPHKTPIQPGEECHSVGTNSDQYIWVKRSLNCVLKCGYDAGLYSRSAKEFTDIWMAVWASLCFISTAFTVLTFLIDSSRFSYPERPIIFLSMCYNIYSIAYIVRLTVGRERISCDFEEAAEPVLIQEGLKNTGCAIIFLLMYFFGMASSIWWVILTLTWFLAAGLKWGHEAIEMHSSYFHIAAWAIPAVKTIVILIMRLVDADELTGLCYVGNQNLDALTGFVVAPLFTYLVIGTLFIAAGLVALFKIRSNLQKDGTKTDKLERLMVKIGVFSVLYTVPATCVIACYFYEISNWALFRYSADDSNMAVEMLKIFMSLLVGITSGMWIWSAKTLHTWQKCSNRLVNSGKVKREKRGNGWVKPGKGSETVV
# Mus musculus [25] = assay: Cardioprotective activity against myocardial infarction Swiss mouse model assessed as increase in infarct area thickness in heart at 6 ug/kg/day, sc via osmotic pumps for 2 to 5 weeks by immunohistochemical staining analysis; assay type: functional, organism-based; details: dose 6.0 µg/kg/day, time 2-5 weeks
# Mus musculus [26] = assay: Cardioprotective activity against myocardial infarction Swiss mouse model assessed as reduction in collagen level in infarct area at 6 ug/kg/day, sc via osmotic pumps for 5 weeks by immunohistochemical staining analysis; assay type: functional, organism-based; details: dose 6.0 µg/kg/day
# [27] = molecular target: T2, Frizzled-4 (Homo sapiens); assay: Antagonist activity at Wnt3a-stimulaed frizzled-4 (unknown origin) expressed in human HEK293superTOP flash cells incubated for 24 hrs by luciferase reporter gene assay; assay type: functional, cell-based; details: HEK293
# Frizzled-2 [28] = molecular target: T1, Frizzled-2; assay: Antagonist activity at Wnt3a-stimulated frizzled-2 (unknown origin) expressed in human HEK293superTOP flash cells incubated for 24 hrs by luciferase reporter gene assay; assay type: functional, cell-based; details: HEK293, filed as antagonist
# Mus musculus [29] = assay: Cardioprotective activity against myocardial infarction Swiss mouse model assessed as increase in amount of blood vessels in heart at 6 ug/kg/day, sc via osmotic pumps for 5 weeks by immunohistochemical staining analysis; assay type: functional, organism-based; details: dose 6.0 µg/kg/day
# Frizzled-2 [30] = molecular target: T1, Frizzled-2; assay: Antagonist activity at Wnt3a-stimulaed human frizzled-2 expressed in human HEK293superTOP flash cells incubated for 24 hrs by luciferase reporter gene assay; assay type: functional, cell-based; details: HEK293, filed as antagonist
# [31] = molecular target: Frizzled-1 (Rattus norvegicus) (UniProt Q08463); assay: Agonist activity at rat frizzled-1 expressed in CHO cells by luciferase reporter gene assay; assay type: cell-based
# Mus musculus [32] = assay: Cardioprotective activity against myocardial infarction Swiss mouse model assessed as increase in ejection fraction at 6 ug/kg/day, sc via osmotic pumps for 5 weeks by echocardiographic analysis relative to control; assay type: functional; details: dose 6 µg/kg/day
# Mus musculus [33] = assay: Cardioprotective activity against myocardial infarction Swiss mouse model assessed as increase in myofibroblast number at 6 ug/kg/day, sc via osmotic pumps for 2 weeks by immunohistochemical staining analysis relative to control; assay type: functional; details: dose 6 µg/kg/day
# Mus musculus [34] = assay: Cardioprotective activity against myocardial infarction Swiss mouse model assessed as EDV_L at 6 ug/kg/day, sc via osmotic pumps for 5 weeks by echocardiographic analysis (reference value: 0.214 +/-0.02 cm3); assay type: functional; details: dose 6 µg/kg/day
# Mus musculus [35] = assay: Cardioprotective activity against myocardial infarction Swiss mouse model assessed as ratio of maximum negative slope to pressure of negative slope at 6 ug/kg/day, sc via osmotic pumps for 5 weeks by Millar pressure recording based analysis (reference value: 33.29 +/-1.14 1/sec); assay type: functional; details: dose 6 µg/kg/day
# [36] = molecular target: Frizzled-2 (Mus musculus) (UniProt Q9JIP6); assay: Antagonist activity at Wnt3a-stimulaed mouse frizzled-2 expressed in human HEK293superTOP flash cells incubated for 24 hrs by luciferase reporter gene assay; assay type: cell-based; details: HEK293, filed as antagonist
# Sequence of Frizzled-2 (Mus musculus) (Q9JIP6 whole entry, looked up): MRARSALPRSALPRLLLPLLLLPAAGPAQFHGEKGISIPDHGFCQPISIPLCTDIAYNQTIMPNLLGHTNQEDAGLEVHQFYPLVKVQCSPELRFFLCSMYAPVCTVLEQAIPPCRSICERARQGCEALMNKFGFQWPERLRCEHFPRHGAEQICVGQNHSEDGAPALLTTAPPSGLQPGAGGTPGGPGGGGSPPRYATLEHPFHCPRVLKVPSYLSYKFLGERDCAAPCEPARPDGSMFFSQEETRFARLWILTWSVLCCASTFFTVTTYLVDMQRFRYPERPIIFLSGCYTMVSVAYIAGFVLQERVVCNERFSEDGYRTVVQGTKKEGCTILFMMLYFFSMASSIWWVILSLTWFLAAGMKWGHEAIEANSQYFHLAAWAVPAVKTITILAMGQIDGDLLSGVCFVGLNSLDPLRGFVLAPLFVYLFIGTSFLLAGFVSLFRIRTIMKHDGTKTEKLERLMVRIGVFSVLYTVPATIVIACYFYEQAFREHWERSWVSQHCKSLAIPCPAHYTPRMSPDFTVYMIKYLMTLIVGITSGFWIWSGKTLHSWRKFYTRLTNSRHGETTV
# Sequence of Frizzled-2 (Rattus norvegicus) (Q08464 29-570 limits assumed): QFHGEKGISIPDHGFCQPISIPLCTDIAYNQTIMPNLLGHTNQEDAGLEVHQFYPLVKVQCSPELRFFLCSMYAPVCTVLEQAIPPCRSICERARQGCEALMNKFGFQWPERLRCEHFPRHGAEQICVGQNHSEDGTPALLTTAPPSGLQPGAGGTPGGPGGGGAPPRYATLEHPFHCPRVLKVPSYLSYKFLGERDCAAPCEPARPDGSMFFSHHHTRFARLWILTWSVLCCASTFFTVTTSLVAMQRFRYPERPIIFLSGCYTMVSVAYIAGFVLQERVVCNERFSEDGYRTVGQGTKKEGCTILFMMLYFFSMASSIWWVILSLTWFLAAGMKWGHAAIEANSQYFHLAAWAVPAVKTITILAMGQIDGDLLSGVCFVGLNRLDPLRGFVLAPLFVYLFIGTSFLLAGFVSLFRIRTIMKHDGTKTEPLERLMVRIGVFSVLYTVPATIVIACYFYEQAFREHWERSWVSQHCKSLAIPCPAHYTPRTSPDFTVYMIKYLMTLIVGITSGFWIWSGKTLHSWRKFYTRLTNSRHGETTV
structure (smiles),measurement,setting,value
CSCC[C@H](NC(=O)CNC(=O)[C@H](CCC(=O)O)NC(=O)[C@H](CO)NC(=O)[C@@H](NC(=O)[C@H](CCCCN)NC(=O)[C@H](CC(N)=O)NC(=O)[C@H](CS)NC(C)=O)[C@@H](C)O)C(=O)N[C@@H](CC(=O)O)C(=O)NCC(=O)N[C@@H](CS)C(=O)N[C@@H](CCC(=O)O)C(=O)N[C@@H](CC(C)C)C(N)=O (Ac-CNKTSEGMDGCEL-NH2),Activity,[1],inactive
same,inhibition,[2],Active
same,Activity,Mus musculus [3],Active
same,Activity,Mus musculus [4],Active
same,mortality at 0.006 mg/kg/day,Mus musculus [5],0%
same,Activity,Mus musculus [6],Active
same,Activity,[7],inactive
same,Activity,Mus musculus [8],69.13 s⁻¹
same,Activity,[9],inactive
same,inhibition,[10],Active
same,Activity,Mus musculus [11],Active
same,Activity,Mus musculus [12],Active
same,Activity,Mus musculus [13],0.09 cm3
same,Ratio IC50,Rattus norvegicus,100
same,Activity,Mus musculus [14],0.3 cm2
same,inhibition,Frizzled-2 [15],inactive
same,Activity,Mus musculus [16],Active
same,Activity,Mus musculus [17],Active
same,inhibition,[18],inactive
same,Activity,Mus musculus [19],0.38 cm2
same,inhibition,[20],inactive
same,Activity,[21],inactive
same,Activity,Mus musculus [22],0.041 cm3
same,Activity,[23],inactive
same,inhibition,[24],inactive
same,Activity,Mus musculus [25],Active
same,Activity,Mus musculus [26],Active
same,inhibition,[27],inactive
same,inhibition,Frizzled-2 [28],Dose-Dependent Effect
same,Activity,Mus musculus [29],Active
same,inhibition,Frizzled-2 [30],Active
same,Activity,[31],inactive
same,fold change (FC),Mus musculus [32],2
same,fold change (FC),Mus musculus [33],>4
same,Activity,Mus musculus [34],0.132 cm3
same,Activity,Mus musculus [35],32.84 s⁻¹
same,inhibition,[36],Active
